Structures are written as SMILES. Active and inactive are the calls of the source. No rule for the calls is given here.

Consider 7 molecules from PubChem BioAssay AID1259407 (Chemical Carcinogenesis Research Information System (CCRIS), 2018).

This series deals with CCRIS mutagenicity, Ames/micronucleus/aberration tests. Description: CCRIS mutagenicity studies.
The mark [1] stands for this setting: Test System: AMES SALMONELLA TYPHIMURIUM, Strain/Indicator: TA100, Metabolic Activation: NONE, Method: STANDARD PLATE.
The mark [2] stands for this setting: Test System: AMES SALMONELLA TYPHIMURIUM, Strain/Indicator: TA100, Metabolic Activation: RAT, LIVER, S-9, AROCLOR 1254, Method: STANDARD PLATE.
Setting [3] is: Test System: AMES SALMONELLA TYPHIMURIUM, Strain/Indicator: TA98, Metabolic Activation: NONE, Method: STANDARD PLATE.

Regarding `Clc1nc(Cl)nc(Nc2ccccc2Cl)n1`, the mutagenic call (Test System: AMES SALMONELLA TYPHIMURIUM, Strain/Indicator: TA97, Metabolic Activation: HAMSTER, LIVER, S-9, AROCLOR 1254 (10 OR 30%), Method: PREINCUBATION) was “inactive; negative”; the mutagenic call (Test System: AMES SALMONELLA TYPHIMURIUM, Strain/Indicator: TA97, Metabolic Activation: RAT, LIVER, S-9, AROCLOR 1254 (10 OR 30%), Method: PREINCUBATION) is “inactive; negative”; the mutagenic call (Test System: AMES SALMONELLA TYPHIMURIUM, Strain/Indicator: TA98, Metabolic Activation: HAMSTER, LIVER, S-9, AROCLOR 1254 (10%), Method: PREINCUBATION) was “inactive; negative”; the mutagenic call (Test System: AMES SALMONELLA TYPHIMURIUM, Strain/Indicator: TA98, Metabolic Activation: HAMSTER, LIVER, S-9, AROCLOR 1254 (30%), Method: PREINCUBATION) is “inactive; negative”; the mutagenic call (Test System: AMES SALMONELLA TYPHIMURIUM, Strain/Indicator: TA98, Metabolic Activation: RAT, LIVER, S-9, AROCLOR 1254 (10%), Method: PREINCUBATION) is “inactive; negative”; the mutagenic call (Test System: AMES SALMONELLA TYPHIMURIUM, Strain/Indicator: TA98, Metabolic Activation: RAT, LIVER, S-9, AROCLOR 1254 (30%), Method: PREINCUBATION) is “inactive; negative”. The mutagenic call (Test System: AMES SALMONELLA TYPHIMURIUM, Strain/Indicator: TA100, Metabolic Activation: HAMSTER, LIVER, S-9, AROCLOR 1254 (10%), Method: PREINCUBATION) is “inactive; negative”; the mutagenic call (Test System: AMES SALMONELLA TYPHIMURIUM, Strain/Indicator: TA100, Metabolic Activation: HAMSTER, LIVER, S-9, AROCLOR 1254 (30%), Method: PREINCUBATION) is “inactive; negative”; the mutagenic call (Test System: AMES SALMONELLA TYPHIMURIUM, Strain/Indicator: TA100, Metabolic Activation: NONE, Method: PREINCUBATION) was “inactive; negative”; the mutagenic call (Test System: AMES SALMONELLA TYPHIMURIUM, Strain/Indicator: TA100, Metabolic Activation: RAT, LIVER, S-9, AROCLOR 1254 (10%), Method: PREINCUBATION) was “inactive; negative”; the mutagenic call (Test System: AMES SALMONELLA TYPHIMURIUM, Strain/Indicator: TA100, Metabolic Activation: RAT, LIVER, S-9, AROCLOR 1254 (30%), Method: PREINCUBATION) was “inactive; negative”; the mutagenic call (Test System: AMES SALMONELLA TYPHIMURIUM, Strain/Indicator: TA1535, Metabolic Activation: HAMSTER, LIVER, S-9, AROCLOR 1254 (10 OR 30%), Method: PREINCUBATION) is “inactive; negative”. Moreover, the mutagenic call (Test System: AMES SALMONELLA TYPHIMURIUM, Strain/Indicator: TA1535, Metabolic Activation: RAT, LIVER, S-9, AROCLOR 1254 (10 OR 30%), Method: PREINCUBATION) is “inactive; negative”; the mutagenic call (Test System: AMES SALMONELLA TYPHIMURIUM, Strain/Indicator: TA1537, Metabolic Activation: HAMSTER, LIVER, S-9, AROCLOR 1254 (10 OR 30%), Method: PREINCUBATION) is “inactive; negative”; the mutagenic call (Test System: AMES SALMONELLA TYPHIMURIUM, Strain/Indicator: TA1537, Metabolic Activation: RAT, LIVER, S-9, AROCLOR 1254 (10 OR 30%), Method: PREINCUBATION) is “inactive; negative”; the mutagenic call (Test System: CHINESE HAMSTER OVARY, Strain/Indicator: CHO-K1-BH4 (HGPRT)/6-THIOGUANINE, Metabolic Activation: NONE) is “inactive; negative”; the mutagenic call (Test System: CHINESE HAMSTER OVARY, Strain/Indicator: CHO-K1-BH4 (HGPRT)/6-THIOGUANINE, Metabolic Activation: S-9) is “inactive; negative”; the mutagenic call (Test System: E. COLI, Strain/Indicator: WP2 UVRA, Metabolic Activation: HAMSTER, LIVER, S-9, AROCLOR 1254, Method: STANDARD PLATE) was “inactive; negative”. The mutagenic call is “inactive; negative” (Test System: E. COLI, Strain/Indicator: WP2 UVRA, Metabolic Activation: HAMSTER, LIVER, S-9, Method: STANDARD PLATE); “inactive; negative” (Test System: E. COLI, Strain/Indicator: WP2 UVRA, Metabolic Activation: MOUSE, LIVER, S-9, AROCLOR 1254, Method: STANDARD PLATE); “inactive; negative” (Test System: E. COLI, Strain/Indicator: WP2 UVRA, Metabolic Activation: MOUSE, LIVER, S-9, Method: STANDARD PLATE); “inactive; negative” (Test System: E. COLI, Strain/Indicator: WP2 UVRA, Metabolic Activation: NONE, Method: STANDARD PLATE); “inactive; negative” (Test System: E. COLI, Strain/Indicator: WP2 UVRA, Metabolic Activation: RAT, LIVER, S-9, AROCLOR 1254, Method: STANDARD PLATE); “inactive; negative” (Test System: E. COLI, Strain/Indicator: WP2 UVRA, Metabolic Activation: RAT, LIVER, S-9, Method: STANDARD PLATE). Also, the mutagenic call reads like this: (Test System: MOUSE LYMPHOMA, Strain/Indicator: L5178Y (TK+/TK-), Metabolic Activation: NONE, Method: SUSPENSION/PLATE) “active; positive”; (Test System: MOUSE LYMPHOMA, Strain/Indicator: L5178Y (TK+/TK-), Metabolic Activation: RAT, LIVER, S-9, AROCLOR 1254, Method: SUSPENSION/PLATE) “active; positive”.

On to `CC1CN1P(=O)(N1CC1C)N1CC1C` (stereo not given), for which the mutagenic call (Test System: AMES SALMONELLA TYPHIMURIUM, Strain/Indicator: G46, Metabolic Activation: HOST MEDIATED, Method: STANDARD PLATE) was “active; positive”.

Regarding `N[C@@H](CCC(=O)NNc1ccccc1)C(=O)O`, the mutagenic call is “inactive; negative” under setting [1]; “active; positive” (Test System: AMES SALMONELLA TYPHIMURIUM, Strain/Indicator: TA100, Metabolic Activation: RAT KIDNEY, MICROSOMES, Method: STANDARD PLATE); “inactive; negative” (Test System: AMES SALMONELLA TYPHIMURIUM, Strain/Indicator: TA100, Metabolic Activation: RAT LIVER, MICROSOMES, Method: STANDARD PLATE).

For `O[C@H]1C=Cc2c(ccc3cc4c(cc23)[C@H](O)[C@@H](O)c2ccccc2-4)[C@@H]1O`, the mutagenic call under setting [2] was “inactive; negative”.

Consider `O=[N+]([O-])c1ccc(/C=C/c2ccc(Cl)cc2)cc1`, for which the mutagenic call (Test System: AMES SALMONELLA TYPHIMURIUM, Strain/Indicator: TA98 (NR), Metabolic Activation: NONE, Method: STANDARD PLATE) was “active; positive”; the mutagenic call (Test System: AMES SALMONELLA TYPHIMURIUM, Strain/Indicator: TA98 (NR), Metabolic Activation: S-9, Method: STANDARD PLATE) is “active; positive”; the mutagenic call under setting [3] was “active; positive”; the mutagenic call (Test System: AMES SALMONELLA TYPHIMURIUM, Strain/Indicator: TA98, Metabolic Activation: S-9, Method: STANDARD PLATE) is “active; positive”; the mutagenic call (Test System: AMES SALMONELLA TYPHIMURIUM, Strain/Indicator: TA100 (NR), Metabolic Activation: NONE, Method: STANDARD PLATE) is “inactive; negative”; the mutagenic call (Test System: AMES SALMONELLA TYPHIMURIUM, Strain/Indicator: TA100 (NR), Metabolic Activation: S-9, Method: STANDARD PLATE) is “inactive; negative”. Moreover, the mutagenic call under setting [1] is “inactive; negative” and the mutagenic call (Test System: AMES SALMONELLA TYPHIMURIUM, Strain/Indicator: TA100, Metabolic Activation: S-9, Method: STANDARD PLATE) was “active; positive”.

As for `CN(C)CCC=C1c2ccccc2CCc2ccccc21`, the mutagenic call under setting [3] is “inactive; negative”; the mutagenic call (Test System: AMES SALMONELLA TYPHIMURIUM, Strain/Indicator: TA98, Metabolic Activation: RAT, LIVER, S-9, AROCLOR 1254, Method: STANDARD PLATE) is “inactive; negative”; the mutagenic call under setting [1] is “inactive; negative”; the mutagenic call under setting [2] is “inactive; negative”; the mutagenic call (Test System: AMES SALMONELLA TYPHIMURIUM, Strain/Indicator: TA1535, Metabolic Activation: NONE, Method: STANDARD PLATE) is “inactive; negative”; the mutagenic call (Test System: AMES SALMONELLA TYPHIMURIUM, Strain/Indicator: TA1535, Metabolic Activation: RAT, LIVER, S-9, AROCLOR 1254, Method: STANDARD PLATE) was “inactive; negative”. Further, the mutagenic call was “inactive; negative” (Test System: AMES SALMONELLA TYPHIMURIUM, Strain/Indicator: TA1537, Metabolic Activation: NONE, Method: STANDARD PLATE) and “inactive; negative” (Test System: AMES SALMONELLA TYPHIMURIUM, Strain/Indicator: TA1537, Metabolic Activation: RAT, LIVER, S-9, AROCLOR 1254, Method: STANDARD PLATE).

Turning to `NNc1ccc(C(=O)O)cc1`, the mutagenic call is “inactive; negative” (Test System: AMES SALMONELLA TYPHIMURIUM, Strain/Indicator: TA104, Metabolic Activation: MUSHROOM TYROSINASE, Method: PREINCUBATION); “inactive; negative” (Test System: AMES SALMONELLA TYPHIMURIUM, Strain/Indicator: TA104, Metabolic Activation: NONE, Method: PREINCUBATION); “inactive; negative” (Test System: AMES SALMONELLA TYPHIMURIUM, Strain/Indicator: TA104, Metabolic Activation: RAT, LIVER, CYTOSOL, AROCLOR 1254, NADPH, Method: PREINCUBATION).
